# Biological target: IDH2 R140Q (Homo sapiens (Human), UniProt P48735, R140Q)
# Test: IDH2 R140Q enzymatic cofactor depletion assay (diaphorase/resazurin)
# Assay type: biochemical
# Conditions: IDH2 R140Q enzyme, one hour preincubation with compound, one hour reaction; read-out: Enz R140Q
# Experimental: The reaction was terminated by the addition of a second enzyme, diaphorase, and a corresponding substrate, resazurin. Diaphorase reduces resazurin to the highly fluorescent resorufin with the concomitant oxidation of NADPH to NADP, both halting the IDH2 reaction by depleting the available cofactor pool and facilitating quantitation of the amount of cofactor remaining after a specific time period through quantitative production of an easily detected fluorophore.
# The compound was then incubated for one hour at room temperature with the enzyme; before starting the IDH2 reaction with the addition of 10 μl of substrate mix containing 50 μM NADPH and 6.3 mM α-KG in the buffer described above. After a further one hour of incubation at room temperature, the reaction was halted and the remaining NADPH measured through conversion of resazurin to resorufin by the addition of 25 μl Stop Mix (36 μg/ml diaphorase enzyme and 60 μM resazurin; in buffer). After one minute of incubation the plate was read on a plate reader at Ex544/Em590.
# Sequence of IDH2 R140Q (P48735 40-452 R140Q): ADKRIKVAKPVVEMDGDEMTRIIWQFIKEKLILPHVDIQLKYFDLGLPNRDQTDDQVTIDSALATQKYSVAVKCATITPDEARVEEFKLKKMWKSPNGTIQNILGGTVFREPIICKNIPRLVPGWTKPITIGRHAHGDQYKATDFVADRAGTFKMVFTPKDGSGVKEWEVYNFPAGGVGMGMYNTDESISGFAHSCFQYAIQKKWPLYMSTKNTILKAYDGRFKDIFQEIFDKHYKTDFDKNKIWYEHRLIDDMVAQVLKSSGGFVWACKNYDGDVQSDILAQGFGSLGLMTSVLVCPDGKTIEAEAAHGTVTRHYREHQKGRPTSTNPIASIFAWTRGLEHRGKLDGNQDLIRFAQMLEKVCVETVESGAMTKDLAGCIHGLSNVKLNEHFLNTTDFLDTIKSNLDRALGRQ
row,SMILES,IC50 [nM]
1,"O=C(Nc1cc(F)cc(F)c1)Nc1cc(S(=O)(=O)NCC(F)(F)F)ccc1-c1ccccc1 [Compound 89, 2-(3-(3,5-difluorophenyl)ureido)-N-(2,2,2-trifluoroethyl)-[1,1′-biphenyl]-4-sulfonamide]",100 to 1000
2,"O=C(Nc1cc(F)ccc1Cl)Nc1cc(S(=O)(=O)NCC(F)(F)F)ccc1-c1ccccc1 [Compound 90, 2-(3-(2-chloro-5-fluorophenyl)ureido)-N-(2,2,2-trifluoroethyl)-[1,1′-biphenyl]-4-sulfonamide]",100 to 1000
3,"Cc1cc(NC(=O)Nc2cc(S(=O)(=O)NCC(F)(F)F)ccc2-c2ccccc2)nn1C [Compound 91, 2-(3-(1,5-dimethyl-1H-pyrazol-3-yl)ureido)-N-(2,2,2-trifluoroethyl)-[1,1′-biphenyl]-4-sulfonamide]",100 to 1000
4,"CC(C)n1ccc(NC(=O)Nc2cc(S(=O)(=O)NCC(F)(F)F)ccc2-c2ccccc2)n1 [Compound 92, 2-(3-(1-isopropyl-1H-pyrazol-3-yl)ureido)-N-(2,2,2-trifluoroethyl)-[1,1′-biphenyl]-4-sulfonamide]",100 to 1000
5,"CCn1ccc(NC(=O)Nc2cc(S(=O)(=O)NCC(F)(F)F)ccc2-c2ccccc2)n1 [Compound 93, 2-(3-(1-ethyl-1H-pyrazol-3-yl)ureido)-N-(2,2,2-trifluoroethyl)-[1,1′-biphenyl]-4-sulfonamide]",100 to 1000
6,"O=C(Nc1cncc(C(F)(F)F)c1)Nc1cc(S(=O)(=O)NCC(F)(F)F)ccc1-c1ccccc1 [Compound 94, N-(2,2,2-trifluoroethyl)-2-(3-(5-(trifluoromethyl)pyridin-3-yl)ureido)-[1,1′-biphenyl]-4-sulfonamide]",100 to 1000
7,O=C(Nc1cc(S(=O)(=O)NCC(F)(F)F)ccc1-c1ccccc1)Nc1ncccc1Cl [Compound 95],1000 to 10000
8,Cc1cc(NC(=O)Nc2cc(S(=O)(=O)NCC(F)(F)F)ccc2-c2ccccc2)n(C)n1 [Compound 96],1000 to 10000
9,"O=C(Nc1cc(S(=O)(=O)NCC(F)(F)F)ccc1-c1ccccc1)Nc1cccnc1F [Compound 97, 2-(3-(2-fluoropyridin-3-yl)ureido)-N-(2,2,2-trifluoroethyl)-[1,1′-biphenyl]-4-sulfonamide]",100 to 1000
10,"O=C(Nc1cncc(F)c1)Nc1cc(S(=O)(=O)NCC(F)(F)F)ccc1-c1ccccc1 [Compound 98, 2-(3-(5-fluoropyridin-3-yl)ureido)-N-(2,2,2-trifluoroethyl)-[1,1′-biphenyl]-4-sulfonamide]",100 to 1000
11,"O=C(Nc1cc(S(=O)(=O)NCC(F)(F)F)ccc1-c1ccccc1)Nc1ncccc1F [Compound 99, 2-(3-(3-fluoropyridin-2-yl)ureido)-N-(2,2,2-trifluoroethyl)-[1,1′-biphenyl]-4-sulfonamide]",1000 to 10000
12,"O=C(Nc1ncc(Cl)s1)Nc1cc(S(=O)(=O)NCC(F)(F)F)ccc1-c1ccccc1 [Compound 100, 2-(3-(5-chlorothiazol-2-yl)ureido)-N-(2,2,2-trifluoroethyl)-[1,1′-biphenyl]-4-sulfonamide]",100 to 1000
13,"Cc1nc(NC(=O)Nc2cc(S(=O)(=O)NCC(F)(F)F)ccc2-c2ccccc2)sc1Cl [Compound 101, 2-(3-(5-chloro-4-methylthiazol-2-yl)ureido)-N-(2,2,2-trifluoroethyl)-[1,1′-biphenyl]-4-sulfonamide]",100 to 1000
14,"Cc1coc(NC(=O)Nc2cc(S(=O)(=O)NCC(F)(F)F)ccc2-c2ccccc2)n1 [Compound 102, 2-(3-(4-methyloxazol-2-yl)ureido)-N-(2,2,2-trifluoroethyl)-[1,1′-biphenyl]-4-sulfonamide]",100 to 1000
15,"O=C(Nc1nc(C(F)(F)F)cs1)Nc1cc(S(=O)(=O)NCC(F)(F)F)ccc1-c1ccccc1 [Compound 103, N-(2,2,2-trifluoroethyl)-2-(3-(4-(trifluoromethyl)thiazol-2-yl)ureido)-[1,1′-biphenyl]-4-sulfonamide]",100 to 1000
16,"O=C(Nc1cc(S(=O)(=O)NCC(F)(F)F)ccc1-c1ccccc1)Nc1ncccc1C(F)(F)F [Compound 104, N-(2,2,2-trifluoroethyl)-2-(3-(3-(trifluoromethyl)pyridin-2-yl)ureido)-[1,1′-biphenyl]-4-sulfonamide]",1000 to 10000
17,"O=C(Nc1nccc(Cl)n1)Nc1cc(S(=O)(=O)NCC(F)(F)F)ccc1-c1ccccc1 [Compound 105, 2-(3-(4-chloropyrimidin-2-yl)ureido)-N-(2,2,2-trifluoroethyl)-[1,1′-biphenyl]-4-sulfonamide]",100 to 1000
18,"O=C(Nc1nccc(C(F)(F)F)n1)Nc1cc(S(=O)(=O)NCC(F)(F)F)ccc1-c1ccccc1 [Compound 106, N-(2,2,2-trifluoroethyl)-2-(3-(4-(trifluoromethyl)pyrimidin-2-yl)ureido)-[1,1′-biphenyl]-4-sulfonamide]",100 to 1000
19,"Cc1ccnc(NC(=O)Nc2cc(S(=O)(=O)NCC(F)(F)F)ccc2-c2ccccc2)n1 [Compound 107, 2-(3-(4-methylpyrimidin-2-yl)ureido)-N-(2,2,2-trifluoroethyl)-[1,1′-biphenyl]-4-sulfonamide]",1000 to 10000
20,"O=C(Nc1cc(S(=O)(=O)NCC(F)(F)F)ccc1-c1ccccc1)n1ccc2ccccc21 [Compound 108, N-(4-(N-(2,2,2-trifluoroethyl)sulfamoyl)-[1,1′-biphenyl]-2-yl)-1H-indole-1-carboxamide]",100 to 1000
21,O=C(Nc1cccc(C(F)(F)F)c1)Nc1cc(S(=O)(=O)Nc2ccccc2)ccc1-c1ccccn1 [Compound 109],1000 to 10000
22,CC(=O)Nc1cccc(-c2ccc(S(=O)(=O)Nc3ccccc3)cc2NC(=O)Nc2cccc(C(F)(F)F)c2)c1 [Compound 110],1000 to 10000
23,"CNS(=O)(=O)c1ccc(-c2ccsc2)c(NC(=O)Nc2cccc(C(F)(F)F)c2)c1 [Compound 111, N-methyl-4-(thiophen-3-yl)-3-(3-(3-(trifluoromethyl)phenyl)ureido)benzenesulfonamide]",100 to 1000

# Other lines, results leading:
row,IC50 [nM],SMILES
1,100 to 1000,"CCNS(=O)(=O)c1ccc(-c2ccsc2)c(NC(=O)Nc2cccc(C(F)(F)F)c2)c1 [Compound 112, N-ethyl-4-(thiophen-3-yl)-3-(3-(3-(trifluoromethyl)phenyl)ureido)benzenesulfonamide]"
2,100 to 1000,"CCCNS(=O)(=O)c1ccc(-c2ccsc2)c(NC(=O)Nc2cccc(C(F)(F)F)c2)c1 [Compound 113, N-propyl-4-(thiophen-3-yl)-3-(3-(3-(trifluoromethyl)phenyl)ureido)benzenesulfonamide]"
3,100 to 1000,"CCCCNS(=O)(=O)c1ccc(-c2ccsc2)c(NC(=O)Nc2cccc(C(F)(F)F)c2)c1 [Compound 114, N-butyl-4-(thiophen-3-yl)-3-(3-(3-(trifluoromethyl)phenyl)ureido)benzenesulfonamide]"
4,100 to 1000,"CC(C)NS(=O)(=O)c1ccc(-c2ccsc2)c(NC(=O)Nc2cccc(C(F)(F)F)c2)c1 [Compound 115, N-isopropyl-4-(thiophen-3-yl)-3-(3-(3-(trifluoromethyl)phenyl)ureido)benzenesulfonamide]"
5,100 to 1000,"CC(C)CNS(=O)(=O)c1ccc(-c2ccsc2)c(NC(=O)Nc2cccc(C(F)(F)F)c2)c1 [Compound 116, N-isobutyl-4-(thiophen-3-yl)-3-(3-(3-(trifluoromethyl)phenyl)ureido)benzenesulfonamide]"
6,100 to 1000,"CCC(C)NS(=O)(=O)c1ccc(-c2ccsc2)c(NC(=O)Nc2cccc(C(F)(F)F)c2)c1 (stereo not drawn) [Compound 117, N-(sec-butyl)-4-(thiophen-3-yl)-3-(3-(3-(trifluoromethyl)phenyl)ureido)benzenesulfonamide]"
7,100 to 1000,"CC(C)(C)NS(=O)(=O)c1ccc(-c2ccsc2)c(NC(=O)Nc2cccc(C(F)(F)F)c2)c1 [Compound 118, N-(tert-butyl)-4-(thiophen-3-yl)-3-(3-(3-(trifluoromethyl)phenyl)ureido)benzenesulfonamide]"
8,100 to 1000,"C=CCNS(=O)(=O)c1ccc(-c2ccsc2)c(NC(=O)Nc2cccc(C(F)(F)F)c2)c1 [Compound 119, N-allyl-4-(thiophen-3-yl)-3-(3-(3-(trifluoromethyl)phenyl)ureido)benzenesulfonamide]"
9,100 to 1000,"O=C(Nc1cccc(C(F)(F)F)c1)Nc1cc(S(=O)(=O)NCCO)ccc1-c1ccsc1 [Compound 120, N-(2-hydroxyethyl)-4-(thiophen-3-yl)-3-(3-(3-(trifluoromethyl)phenyl)ureido)benzenesulfonamide]"
10,100 to 1000,"COCCNS(=O)(=O)c1ccc(-c2ccsc2)c(NC(=O)Nc2cccc(C(F)(F)F)c2)c1 [Compound 121, N-(2-methoxyethyl)-4-(thiophen-3-yl)-3-(3-(3-(trifluoromethyl)phenyl)ureido)benzenesulfonamide]"
11,100 to 1000,"COCCCNS(=O)(=O)c1ccc(-c2ccsc2)c(NC(=O)Nc2cccc(C(F)(F)F)c2)c1 [Compound 122, N-(3-methoxypropyl)-4-(thiophen-3-yl)-3-(3-(3-(trifluoromethyl)phenyl)ureido)benzenesulfonamide]"
12,100 to 1000,"CC(C)C(CO)NS(=O)(=O)c1ccc(-c2ccsc2)c(NC(=O)Nc2cccc(C(F)(F)F)c2)c1 (stereo not drawn) [Compound 123, N-(1-hydroxy-3-methylbutan-2-yl)-4-(thiophen-3-yl)-3-(3-(3-(trifluoromethyl)phenyl)ureido)benzene sulfonamide]"
13,100 to 1000,"O=C(Nc1cccc(C(F)(F)F)c1)Nc1cc(S(=O)(=O)NC2CCC2)ccc1-c1ccsc1 [Compound 125, N-cyclobutyl-4-(thiophen-3-yl)-3-(3-(3-(trifluoromethyl)phenyl)ureido)benzenesulfonamide]"
